The subject of data set [1] is MCF7. Nature of the data set: Antiproliferative activity against human MCF7 cells assessed as reduction in cell growth measured for 48 hrs by MTT assay. The conditions noted are these: MCF7, 48 h. Type of data set: functional, cell-based.
The test system of data set [2] is HepG2. Nature of the data set: Antiproliferative activity against human HepG2 cells assessed as reduction in cell growth measured for 48 hrs by MTT assay. Conditions: HepG2, 48 h. Format: functional, cell-based.
Data set [3] relates to HCT-116. Description: Antiproliferative activity against human HCT-116 cells assessed as reduction in cell growth measured for 48 hrs by MTT assay. Format: functional, cell-based. The conditions noted are these: HCT-116, 48 h.
The subject of data set [4] is A549. Description: Antiproliferative activity against human A549 cells assessed as reduction in cell growth measured for 48 hrs by MTT assay. The conditions noted are these: A549, 48 h. Format: functional, cell-based.
In data set [5] the target is T1, Histone deacetylase 1 (Homo sapiens, UniProt Q13547). Description: Inhibition of human HDAC1 by colorimetric ELISA assay.
T1 sequence (Q13547 whole entry): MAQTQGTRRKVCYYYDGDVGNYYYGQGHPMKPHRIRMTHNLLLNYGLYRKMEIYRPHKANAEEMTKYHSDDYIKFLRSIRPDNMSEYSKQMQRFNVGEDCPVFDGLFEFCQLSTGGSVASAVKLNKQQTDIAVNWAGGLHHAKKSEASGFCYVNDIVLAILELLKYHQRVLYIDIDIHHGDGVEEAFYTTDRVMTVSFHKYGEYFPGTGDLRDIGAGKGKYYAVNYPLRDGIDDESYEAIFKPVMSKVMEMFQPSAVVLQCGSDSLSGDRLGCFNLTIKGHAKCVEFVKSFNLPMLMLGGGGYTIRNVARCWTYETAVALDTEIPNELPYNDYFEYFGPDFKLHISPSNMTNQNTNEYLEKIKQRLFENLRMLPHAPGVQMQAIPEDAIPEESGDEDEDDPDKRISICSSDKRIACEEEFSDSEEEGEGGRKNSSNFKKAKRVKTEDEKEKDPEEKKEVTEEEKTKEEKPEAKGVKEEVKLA
The target of data set [6] is T2, Histone deacetylase 2 (Homo sapiens, UniProt Q92769). Nature of the data set: Inhibition of human HDAC2 by colorimetric ELISA assay.
T2 sequence (Q92769 whole entry): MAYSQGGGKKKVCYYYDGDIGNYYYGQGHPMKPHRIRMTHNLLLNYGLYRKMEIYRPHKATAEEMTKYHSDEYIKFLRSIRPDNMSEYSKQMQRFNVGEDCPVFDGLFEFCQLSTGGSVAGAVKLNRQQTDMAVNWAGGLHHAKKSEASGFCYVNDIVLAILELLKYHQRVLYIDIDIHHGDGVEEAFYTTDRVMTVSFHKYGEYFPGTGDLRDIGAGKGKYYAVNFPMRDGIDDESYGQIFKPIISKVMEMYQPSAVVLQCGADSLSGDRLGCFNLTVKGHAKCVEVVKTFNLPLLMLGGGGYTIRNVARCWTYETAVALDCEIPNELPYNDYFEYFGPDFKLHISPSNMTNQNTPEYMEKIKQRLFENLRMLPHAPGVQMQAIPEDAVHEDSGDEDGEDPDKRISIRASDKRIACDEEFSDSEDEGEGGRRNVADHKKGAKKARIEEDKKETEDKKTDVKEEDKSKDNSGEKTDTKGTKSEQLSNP
Data set [7] deals with T1, Histone deacetylase 1. Description: Inhibition of HDAC1 (unknown origin) using 6-carboxyfluorescein peptide as substrate incubated for 18 hrs by fluorescence based assay.
In data set [8] the target is T2, Histone deacetylase 2. Nature of the data set: Inhibition of HDAC2 (unknown origin) using 6-carboxyfluorescein peptide as substrate incubated for 18 hrs by fluorescence based assay.
The target of data set [9] is T3, Protein deacetylase HDAC6 (Homo sapiens, UniProt Q9UBN7).
T3 sequence (Q9UBN7 whole entry): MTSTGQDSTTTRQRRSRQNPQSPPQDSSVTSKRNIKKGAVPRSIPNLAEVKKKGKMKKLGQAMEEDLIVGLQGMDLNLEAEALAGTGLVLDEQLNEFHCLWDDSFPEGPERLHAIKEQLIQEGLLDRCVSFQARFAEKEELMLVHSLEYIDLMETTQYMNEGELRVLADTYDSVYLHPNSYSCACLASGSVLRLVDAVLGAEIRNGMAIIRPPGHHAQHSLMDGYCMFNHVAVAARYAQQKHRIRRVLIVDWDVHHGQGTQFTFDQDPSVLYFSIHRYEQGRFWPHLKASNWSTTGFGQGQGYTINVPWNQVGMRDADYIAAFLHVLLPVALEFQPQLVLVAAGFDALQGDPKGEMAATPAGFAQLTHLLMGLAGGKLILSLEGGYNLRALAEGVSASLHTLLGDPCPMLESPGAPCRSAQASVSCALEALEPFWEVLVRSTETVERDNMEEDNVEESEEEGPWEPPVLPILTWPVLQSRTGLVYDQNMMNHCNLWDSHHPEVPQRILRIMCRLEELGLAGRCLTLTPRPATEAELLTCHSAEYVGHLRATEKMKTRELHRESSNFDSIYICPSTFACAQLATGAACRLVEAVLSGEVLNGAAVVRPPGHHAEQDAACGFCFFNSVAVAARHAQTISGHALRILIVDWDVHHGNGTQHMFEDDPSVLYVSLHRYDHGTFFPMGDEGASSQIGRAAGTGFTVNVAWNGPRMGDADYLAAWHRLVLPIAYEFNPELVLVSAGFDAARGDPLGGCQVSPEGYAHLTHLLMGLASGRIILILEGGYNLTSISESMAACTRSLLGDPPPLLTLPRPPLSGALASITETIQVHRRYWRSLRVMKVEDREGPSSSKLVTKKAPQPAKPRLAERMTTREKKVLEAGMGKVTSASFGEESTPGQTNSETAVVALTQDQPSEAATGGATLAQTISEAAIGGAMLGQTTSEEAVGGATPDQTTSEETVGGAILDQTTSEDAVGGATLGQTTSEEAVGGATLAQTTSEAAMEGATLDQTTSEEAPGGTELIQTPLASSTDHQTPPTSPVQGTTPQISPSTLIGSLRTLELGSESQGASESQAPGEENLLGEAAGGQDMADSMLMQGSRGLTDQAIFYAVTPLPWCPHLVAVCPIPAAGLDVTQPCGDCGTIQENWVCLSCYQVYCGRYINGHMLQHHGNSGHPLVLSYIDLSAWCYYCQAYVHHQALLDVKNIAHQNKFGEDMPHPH
Description: Inhibition of HDAC6 (unknown origin) using 6-carboxyfluorescein peptide as substrate incubated for 18 hrs by fluorescence based assay.

Data set [10] has as its system A549. Nature of the data set: Antiproliferative activity against human A549 cells assessed as inhibition of cell growth measured after 72 hrs by MTT assay. Conditions: A549, 72 h, pooled result: one value given for 8 cell lines, strains, targets or settings. Format: functional, cell-based.
Data set [11] in a line: Metabolic stability in human liver microsomes assessed as half life incubated for 60 mins in presence of NADPH by LC-MS/MS analysis. Format: ADME, Microsome.
A short description of data set [12]: Metabolic stability in mouse liver microsomes assessed as half life incubated for 60 mins in presence of NADPH by LC-MS/MS analysis. Format: ADME, Microsome.
Data set [13] is described as follows: Metabolic stability in rat liver microsomes assessed as half life incubated for 60 mins in presence of NADPH by LC-MS/MS analysis. Type of data set: ADME, Microsome.
A short description of data set [14]: Oral bioavailability in female […] at 10 mg/kg. Conditions: in vivo. Type of data set: ADME, organism-based.
Data set [15] deals with U-87 MG. Description: Antitumor activity against human U87 cells xenografted in mouse assessed as tumor growth inhibition at 20 mg/kg, po relative to control. Type of data set: functional, U-87MG ATCC. Conditions: read-out: TGI.
The target in data set [16] is T3, Protein deacetylase HDAC6. Description: Inhibition of HDAC6 (unknown origin) using ZMAL (Z-Lys(Ac)-AMC as fluorogenic substrate pre-incubated for 15 mins followed by susbtrate addition and measured for 45 mins by fluorescence based analysis.
Another data set has as its system HT-29. Nature of the data set: Antiproliferative activity against human HT-29 cells assessed as reduction in cell growth by MTT assay. Format: functional, cell-based.
In the next data set the test system is SH-SY5Y. Nature of the data set: Antiproliferative activity against human SH-SY5Y cells by MTT assay. Type of data set: functional, cell-based.
Data set [17] concerns HepG2. Description: Antiproliferative activity against human HepG2 cells measured after 24 hrs by MTT assay. Type of data set: functional, cell-based. The conditions noted are these: HepG2, 24 h.
Data set [18] deals with HCT-116. Nature of the data set: Antiproliferative activity against human HCT-116 cells measured after 24 hrs by MTT assay. Type of data set: functional, cell-based. The conditions noted are these: HCT-116, 24 h.
In data set [19] the test system is MCF7. Nature of the data set: Antiproliferative activity against human MCF7 cells measured after 24 hrs by MTT assay. Format: functional, cell-based. Conditions: MCF7, 24 h.
The subject of the next data set is HeLa. Description: Antiproliferative activity against human HeLa cells measured after 24 hrs by MTT assay. Format: functional, cell-based.
Data set [20] deals with T1, Histone deacetylase 1. Description: Inhibition of human HDAC1 incubated for 30 mins by ELISA. The conditions noted are these: pooled result: one value given for 5 cell lines, strains, targets or settings.
Data set [21] concerns Ehrlich. Description: Antitumor activity against mouse EAC cells implanted in mouse assessed as increase in life span at 0.5 mg/kg, ip relative to control. Format: functional.
The subject of data set [22] is Ehrlich. Nature of the data set: Antitumor activity against mouse EAC cells implanted in mouse assessed as reduction in tumor volume at 0.5 mg/kg, ip relative to control. Format: functional. More on the design: scale not given: the % may be the effect or the level left.
Data set [23] can be described thus: Antiproliferative activity against human MCF-10A cells assessed as reduction in cell viability incubated for 48 hrs by MTT assay. Type of data set: toxicity, cell-based.
Data set [24] can be described thus: Antiproliferative activity against human MCF-10F cells assessed as reduction in cell viability incubated for 48 hrs by MTT assay. Type of data set: toxicity, cell-based.
The nature of data set [25]: Antiproliferative activity against human BEAS-2B cells assessed as reduction in cell viability incubated for 48 hrs by MTT assay. Type of data set: toxicity, cell-based.
Data set [26] concerns the target T2, Histone deacetylase 2. Description: Inhibition of HDAC2 (unknown origin) using Boc-Lys-(Ac)-AMC as substrate incubated for 60 mins by fluorescence based analysis.
Another data set relates to MDA-MB-231. Description: Antitumor activity against human MDA-MB-231 cells in nude mouse assessed as tumor growth inhibition at 20 mg/kg, ip administered once daily for 30 days relative to control. Format: functional. The conditions noted are these: MDA-MB-231, 720 h, time 30 day, read-out: TGI.
For data set [27], the system named is U-87 MG. Nature of the data set: Antiproliferative activity against human U87 cells assessed as reduction in cell growth incubated for 72 hrs by MTT assay. Type of data set: functional, cell-based, U-87MG ATCC.
A further data set deals with U-251. Description: Antiproliferative activity against human U-251 cells assessed as reduction in cell growth incubated for 72 hrs by MTT assay. Format: functional, cell-based. Conditions: U-251, 72 h.
Data set [28] concerns the target T3, Protein deacetylase HDAC6. Nature of the data set: Inhibition of HDAC6 (unknown origin).
Data set [29] addresses T1, Histone deacetylase 1. Nature of the data set: Inhibition of HDAC1 (unknown origin).
The target of data set [30] is T2, Histone deacetylase 2. Nature of the data set: Inhibition of HDAC2 (unknown origin).
The target of another data set is Histone deacetylase 3 (Homo sapiens, UniProt O15379). Description: Inhibition of HDAC3 (unknown origin).
Sequence of Histone deacetylase 3 (O15379 whole entry): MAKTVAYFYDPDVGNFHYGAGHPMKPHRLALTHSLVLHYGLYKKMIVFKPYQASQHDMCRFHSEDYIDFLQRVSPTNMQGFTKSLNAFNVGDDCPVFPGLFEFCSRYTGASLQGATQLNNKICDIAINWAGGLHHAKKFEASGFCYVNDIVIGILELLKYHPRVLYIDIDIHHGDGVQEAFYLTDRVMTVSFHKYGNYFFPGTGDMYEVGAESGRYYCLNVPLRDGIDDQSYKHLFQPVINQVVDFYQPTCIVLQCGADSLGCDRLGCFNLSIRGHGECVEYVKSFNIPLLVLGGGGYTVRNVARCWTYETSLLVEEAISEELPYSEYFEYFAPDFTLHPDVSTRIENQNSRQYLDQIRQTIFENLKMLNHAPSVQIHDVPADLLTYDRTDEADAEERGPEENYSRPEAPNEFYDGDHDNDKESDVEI
The nature of data set [31]: Cytotoxicity against HEK293T cells. Conditions: human. Format: toxicity, cell-based, HEK-293T.
Data set [32] is described as follows: Cytotoxicity against human PBMC cells. Format: toxicity, cell-based.
Another data set deals with Histone deacetylase 4 (Homo sapiens, UniProt P56524). Nature of the data set: Inhibition of HDAC4 (unknown origin).
Sequence of Histone deacetylase 4 (P56524 whole entry): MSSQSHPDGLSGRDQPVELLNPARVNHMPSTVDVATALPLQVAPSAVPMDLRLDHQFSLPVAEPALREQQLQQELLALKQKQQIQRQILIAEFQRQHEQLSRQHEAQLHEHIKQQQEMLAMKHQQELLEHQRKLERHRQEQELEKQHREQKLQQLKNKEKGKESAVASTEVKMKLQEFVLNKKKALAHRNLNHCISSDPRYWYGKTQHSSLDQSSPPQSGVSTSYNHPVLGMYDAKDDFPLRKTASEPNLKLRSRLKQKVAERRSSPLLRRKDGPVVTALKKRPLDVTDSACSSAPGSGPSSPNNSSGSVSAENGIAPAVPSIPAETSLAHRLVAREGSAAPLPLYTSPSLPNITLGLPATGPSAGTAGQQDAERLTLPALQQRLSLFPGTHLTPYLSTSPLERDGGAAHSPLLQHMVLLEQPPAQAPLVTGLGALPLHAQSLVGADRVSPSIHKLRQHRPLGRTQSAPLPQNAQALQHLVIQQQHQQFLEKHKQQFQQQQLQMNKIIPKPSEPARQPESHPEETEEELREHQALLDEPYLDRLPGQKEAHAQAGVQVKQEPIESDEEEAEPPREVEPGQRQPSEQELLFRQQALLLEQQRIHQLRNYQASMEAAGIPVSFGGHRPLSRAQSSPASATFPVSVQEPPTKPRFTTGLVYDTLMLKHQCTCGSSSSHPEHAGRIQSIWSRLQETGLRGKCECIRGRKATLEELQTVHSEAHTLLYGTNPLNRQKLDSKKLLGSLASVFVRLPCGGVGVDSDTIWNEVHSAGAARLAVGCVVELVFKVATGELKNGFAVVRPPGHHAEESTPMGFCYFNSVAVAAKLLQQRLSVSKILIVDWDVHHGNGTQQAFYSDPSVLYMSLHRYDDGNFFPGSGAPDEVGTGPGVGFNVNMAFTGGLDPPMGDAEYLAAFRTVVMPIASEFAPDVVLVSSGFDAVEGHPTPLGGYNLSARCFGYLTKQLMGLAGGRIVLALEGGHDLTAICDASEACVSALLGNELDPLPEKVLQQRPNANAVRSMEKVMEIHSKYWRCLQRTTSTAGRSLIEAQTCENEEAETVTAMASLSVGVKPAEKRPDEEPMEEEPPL
The nature of data set [33]: Antitumor activity against mouse WEHI-3 cells implanted in mouse assessed as reduction in tumor growth at 25 mg/kg, ip relative to control. Format: functional. More on the design: scale not given: the % may be the effect or the level left.
Data set [34] is described as follows: Antitumor activity against mouse WEHI-3 cells implanted in mouse assessed as survival time at 25 mg/kg, ip (reference value: 16 day). Type of data set: functional.
Another data set relates to HL-60. Nature of the data set: Antiproliferative activity against human HL-60 cells assessed as cell growth inhibition by MTT assay. Format: functional, cell-based.
For a further data set, the system named is U-937. Nature of the data set: Antiproliferative activity against human U-937 cells assessed as cell growth inhibition by MTT assay. Format: functional, cell-based.

pIC50: −log10 of the molar value.

Turning to `COc1cc(/C=C/C(=O)c2ccc(OCCCCCC(=O)NO)cc2)cc(OC)c1OC`, the pIC50 is 6.27 in the data set on MCF7 [1]; 6.27 in the data set with HepG2 [2]; 6.27 in the data set on HCT-116 [3]; 6.27 with A549 [4]; 7.22 against Histone deacetylase 1 [5]; 7.22 on Histone deacetylase 2 [6].
For the compound `COc1cc(/C=C/C(=O)CC(=O)/C=C/c2ccc(/C=C/C(=O)NO)cc2)ccc1O`, the pIC50 was 9.42 on Histone deacetylase 1 [7], 9.42 against Histone deacetylase 2 [8], 9.42 in [9] and 5.27 with A549 [10]. Moreover, the half-life in data set [11] was found to be 91.6 min; in data set [12], 32.7 min; in [13] it was 40.7 min. In addition, the bioavailability in [14] worked out at 40.2%. For the same compound, in the data set with U-87 MG [15], the inhibition in vivo at 20 mg/kg came to 52.1%.
For `Cc1nc(C)c(C(=O)Nc2cccc(C(=O)NO)c2)nc1C`, the figures for the negative-log IC50 (pIC50) (in data set [16]; in the data set on HT-29; in the data set with SH-SY5Y) were 6.77, 5.30 and 5.12, respectively.
Take `CCCC(CCC)C(=O)N[C@@H](Cc1ccccc1)C(=O)NO`: the pIC50 in the data set with HepG2 [17] is 5.02; in the data set on HCT-116 [18], 5.02; in the data set with MCF7 [19], 5.02; with HeLa it was 5.02; at Histone deacetylase 1 [20] it was 8.54. For the same compound, in the data set on Ehrlich [21], the ILS at 0.5 mg/kg was 131%. In the data set on Ehrlich [22], the Activity was around 36%.
Consider `O=C(CCCCCC(=O)N(Cc1ccc(Br)s1)c1ccc(OCCN2CCOCC2)cc1)NO`, for which the IC50 at 48 h in [23], in data set [24] and in data set [25] was above 100000 nM each time. This compound also had a pIC50 at Histone deacetylase 2 [26] of 8.49. Further, the inhibition in vivo at 20 mg/kg in the data set on MDA-MB-231 is around 95%.
On to `O=C(CCCCCNC(=O)c1cc(O)c2c(c1)C(=O)c1cccc(O)c1C2=O)NO`, for which the negative logarithm of the IC50 (pIC50) in the data set on U-87 MG [27] and in the data set on U-251 was 5.26 in each case.
Take `CNCCOc1ccc(-c2cc(=O)c3cc(OCCCCCC(=O)NO)cc(O)c3o2)cc1`: the pIC50 in data set [28] was 7.52; against Histone deacetylase 1 [29], 7.52; at Histone deacetylase 2 [30], 7.52; at Histone deacetylase 3, 7.52; in [31], 5.02; in data set [32] it was 4.93. In addition, the pIC50 against Histone deacetylase 4 was 7.52. Further, the Activity in [33] is around 65%. Moreover, the Survival in data set [34] came to 27 days.
With `O=C(O)CCCc1ccc(N(CCCl)CCCl)cc1` [CHLORAMBUCIL], the pIC50 with HL-60 is 4.68; with U-937, 4.42.

These data come from ChEMBL document CHEMBL5614367, “Hydroxamic acid hybrids: Histone deacetylase inhibitors with anticancer therapeutic potency” (Eur J Med Chem, 2023).
